Experimental data published in ChEMBL document CHEMBL1201862, “PubChem BioAssay data set” (2004).
Structures can show the parent of a compound that is named as a salt. The source made the active and inactive calls.

What was measured:
[1] = molecular target: Phospholipase D2 (Homo sapiens, UniProt O14939); assay: cellular phospholipase D2 inhibition IC50 – cell-based, dose response (AID 602147); type: functional;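 further: cellular assay in HEK293 cells overexpressing GFP-tagged PLD2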
[2] = molecular target: T1, Phospholipase D1 (Homo sapiens, UniProt Q13393); assay: cellular phospholipase D1 inhibition IC50 – cell-based, dose response (AID 602151); type: functional;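 further: cellular PLD1 assay in Calu-1 cells stimulated with PMA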
T1 sequence (Q13393 whole entry): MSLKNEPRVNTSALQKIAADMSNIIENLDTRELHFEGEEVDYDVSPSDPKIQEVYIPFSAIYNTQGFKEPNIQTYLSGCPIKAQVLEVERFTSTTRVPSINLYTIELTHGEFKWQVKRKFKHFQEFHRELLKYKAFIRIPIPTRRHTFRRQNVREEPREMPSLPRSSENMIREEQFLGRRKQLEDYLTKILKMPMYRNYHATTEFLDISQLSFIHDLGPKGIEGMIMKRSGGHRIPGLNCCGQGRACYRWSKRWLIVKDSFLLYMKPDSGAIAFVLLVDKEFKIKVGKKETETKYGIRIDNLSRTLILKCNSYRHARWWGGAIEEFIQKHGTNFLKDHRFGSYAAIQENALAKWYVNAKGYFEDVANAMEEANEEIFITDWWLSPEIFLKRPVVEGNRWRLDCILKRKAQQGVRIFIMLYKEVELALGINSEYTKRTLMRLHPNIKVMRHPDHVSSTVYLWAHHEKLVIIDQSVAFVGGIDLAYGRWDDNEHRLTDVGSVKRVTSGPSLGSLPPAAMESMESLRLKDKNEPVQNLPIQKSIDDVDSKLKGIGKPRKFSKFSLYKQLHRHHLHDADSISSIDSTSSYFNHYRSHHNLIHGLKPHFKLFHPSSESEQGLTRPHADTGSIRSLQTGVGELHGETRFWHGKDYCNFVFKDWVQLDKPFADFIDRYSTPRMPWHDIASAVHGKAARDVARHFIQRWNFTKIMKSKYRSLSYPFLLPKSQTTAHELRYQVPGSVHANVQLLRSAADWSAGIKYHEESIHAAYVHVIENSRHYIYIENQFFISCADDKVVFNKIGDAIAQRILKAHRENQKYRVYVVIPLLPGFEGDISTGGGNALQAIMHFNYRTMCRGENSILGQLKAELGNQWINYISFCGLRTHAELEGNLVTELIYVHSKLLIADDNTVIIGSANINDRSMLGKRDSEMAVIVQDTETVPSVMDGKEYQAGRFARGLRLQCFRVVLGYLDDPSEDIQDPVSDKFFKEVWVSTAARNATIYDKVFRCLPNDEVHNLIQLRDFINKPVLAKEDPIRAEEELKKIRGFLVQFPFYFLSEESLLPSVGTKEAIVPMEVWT

[3] = system: Streptococcus; assay: GAS UMAA2166 growth inhibition – luminescence, BacTiterGlo, counter-screen for streptokinase expression inhibitor project, dose response (AID 1915); type: functional, organism-based;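 further: potency for reduction of bacterial viability or growth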
[4] = NIH-3T3 fibroblast cytotoxicity, dose response, cytotoxicity control, cell-based, fluorescence, Alamar Blue, secondary assay (AID 2327); type: functional;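 further: NIH-3T3 mouse fibroblasts cultured with fluconazole at 8 µg/mL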
[5] = system: INS1; assay: INS-1E survival protection against cytokine death – cell-based, luminescence, retest, dose response (AID 449756); type: functional; conditions: Rattus norvegicus;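 further: cell death triggered by IL-1 beta plus TNF-alpha plus IFN-gamma mixture; protective hits raise ATP signal compared with cytokine alone wells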
[6] = molecular target: Heat shock protein HSP 90-alpha (Homo sapiens, UniProt P07900); type: functional, organism-based
[7] = system: Vero; assay: viability of Vero cells under compound – cytotoxicity control for flavivirus capping enzyme inhibitors (AID 588742); type: functional; conditions: Chlorocebus sabaeus
[8] = fluconazole-exposed Candida albicans growth modulators – fluorescence, retest, confirmation (AID 2467); type: functional, cell-based
[9] = system: Streptococcus sp. 'group A'; assay: Streptococcus pyogenes SK(-)GAS viability under kanamycin – luminescence, BacTiterGlo, confirmation, counter-screen for streptokinase expression inhibitor project, dose response (AID 1900); type: functional, organism-based
[10] = molecular target: T2, Apoptotic protease-activating factor 1 (Homo sapiens, UniProt O14727); type: functional
T2 sequence (O14727 whole entry): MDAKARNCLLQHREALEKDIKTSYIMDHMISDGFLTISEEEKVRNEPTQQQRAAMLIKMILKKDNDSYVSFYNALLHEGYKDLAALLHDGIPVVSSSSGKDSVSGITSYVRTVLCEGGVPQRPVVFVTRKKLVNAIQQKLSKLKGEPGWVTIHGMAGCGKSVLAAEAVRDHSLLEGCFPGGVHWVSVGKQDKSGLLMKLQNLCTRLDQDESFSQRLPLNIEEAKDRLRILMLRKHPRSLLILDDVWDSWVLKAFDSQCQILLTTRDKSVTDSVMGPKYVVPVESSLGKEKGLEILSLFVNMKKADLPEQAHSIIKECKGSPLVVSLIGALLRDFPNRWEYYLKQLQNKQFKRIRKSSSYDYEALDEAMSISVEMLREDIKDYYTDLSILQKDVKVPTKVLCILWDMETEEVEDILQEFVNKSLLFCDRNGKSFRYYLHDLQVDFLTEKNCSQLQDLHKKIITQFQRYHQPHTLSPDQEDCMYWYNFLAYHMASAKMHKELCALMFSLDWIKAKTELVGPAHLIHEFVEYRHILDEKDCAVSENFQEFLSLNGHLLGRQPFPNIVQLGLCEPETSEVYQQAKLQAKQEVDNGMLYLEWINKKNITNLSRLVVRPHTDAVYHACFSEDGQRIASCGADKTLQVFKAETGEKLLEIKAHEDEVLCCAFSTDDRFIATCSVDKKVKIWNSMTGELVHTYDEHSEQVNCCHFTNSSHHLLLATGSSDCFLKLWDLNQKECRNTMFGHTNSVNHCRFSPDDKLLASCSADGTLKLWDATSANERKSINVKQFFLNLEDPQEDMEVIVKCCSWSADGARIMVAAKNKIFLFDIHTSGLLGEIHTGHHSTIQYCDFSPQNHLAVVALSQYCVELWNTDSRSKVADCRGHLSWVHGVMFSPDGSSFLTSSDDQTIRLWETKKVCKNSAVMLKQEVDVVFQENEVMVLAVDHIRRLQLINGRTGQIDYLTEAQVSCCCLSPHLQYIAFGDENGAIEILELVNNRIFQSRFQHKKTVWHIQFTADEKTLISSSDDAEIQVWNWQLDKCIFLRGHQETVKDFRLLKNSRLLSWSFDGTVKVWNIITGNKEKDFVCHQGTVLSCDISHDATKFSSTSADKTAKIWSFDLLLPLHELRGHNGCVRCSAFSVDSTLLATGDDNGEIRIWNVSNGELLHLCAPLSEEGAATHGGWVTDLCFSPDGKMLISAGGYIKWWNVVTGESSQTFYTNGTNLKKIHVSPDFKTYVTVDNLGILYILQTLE

[11] = molecular target: Glucose-6-phosphate 1-dehydrogenase (Homo sapiens, UniProt P11413); assay: inhibition of Homo sapiens G6PD, dose series – biochemical, fluorescence, selectivity assay for P. falciparum G6PD inhibitor project, dose response (AID 504792); type: functional
Glucose-6-phosphate 1-dehydrogenase, sequence (P11413 whole entry): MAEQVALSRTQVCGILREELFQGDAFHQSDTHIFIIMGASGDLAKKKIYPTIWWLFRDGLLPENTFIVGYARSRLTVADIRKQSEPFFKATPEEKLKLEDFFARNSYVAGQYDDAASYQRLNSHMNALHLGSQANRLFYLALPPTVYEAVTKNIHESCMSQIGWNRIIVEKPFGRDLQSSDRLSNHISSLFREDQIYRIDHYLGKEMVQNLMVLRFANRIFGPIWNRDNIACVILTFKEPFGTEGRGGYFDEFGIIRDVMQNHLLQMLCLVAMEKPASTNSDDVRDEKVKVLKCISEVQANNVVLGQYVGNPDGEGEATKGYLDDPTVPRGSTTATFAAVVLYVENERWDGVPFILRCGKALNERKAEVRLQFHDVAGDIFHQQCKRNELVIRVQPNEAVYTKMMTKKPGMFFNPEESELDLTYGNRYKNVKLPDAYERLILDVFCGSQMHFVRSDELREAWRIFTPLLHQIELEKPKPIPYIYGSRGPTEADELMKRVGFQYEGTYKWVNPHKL

Phospholipase D2, sequence (O14939 whole entry): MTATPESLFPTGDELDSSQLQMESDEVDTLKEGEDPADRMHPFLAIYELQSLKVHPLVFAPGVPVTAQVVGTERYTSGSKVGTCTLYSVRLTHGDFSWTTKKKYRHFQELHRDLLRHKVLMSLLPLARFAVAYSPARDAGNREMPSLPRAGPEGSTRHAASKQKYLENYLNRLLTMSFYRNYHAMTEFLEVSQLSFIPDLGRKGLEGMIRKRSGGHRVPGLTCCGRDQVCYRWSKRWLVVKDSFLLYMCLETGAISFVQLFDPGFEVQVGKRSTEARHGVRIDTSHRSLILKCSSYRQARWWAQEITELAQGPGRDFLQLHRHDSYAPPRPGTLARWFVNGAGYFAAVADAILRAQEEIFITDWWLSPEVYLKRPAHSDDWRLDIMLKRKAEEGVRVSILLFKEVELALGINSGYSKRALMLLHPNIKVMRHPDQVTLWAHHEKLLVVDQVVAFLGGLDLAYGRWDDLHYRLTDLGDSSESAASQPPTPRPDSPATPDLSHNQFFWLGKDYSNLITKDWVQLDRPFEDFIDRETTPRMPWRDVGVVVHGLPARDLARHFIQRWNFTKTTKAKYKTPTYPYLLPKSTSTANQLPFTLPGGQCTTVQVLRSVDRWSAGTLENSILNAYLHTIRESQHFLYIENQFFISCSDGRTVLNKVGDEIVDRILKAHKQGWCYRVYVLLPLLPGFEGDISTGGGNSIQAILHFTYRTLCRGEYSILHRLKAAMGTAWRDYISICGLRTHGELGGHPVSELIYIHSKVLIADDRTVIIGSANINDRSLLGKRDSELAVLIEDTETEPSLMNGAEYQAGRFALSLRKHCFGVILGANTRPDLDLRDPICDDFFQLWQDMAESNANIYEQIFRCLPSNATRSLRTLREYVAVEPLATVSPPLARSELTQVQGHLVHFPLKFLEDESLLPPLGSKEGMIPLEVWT

**Q.** What does the source list for `O=C(N[C@@H](Cc1ccccc1)CN1CCC(n2c(=O)[nH]c3ccccc32)CC1)c1cnc2ccccc2c1`?
**A.** IC50 [1]: 20 µM (active); IC50 [2]: 2.8 µM (active)

**Q.** With `COc1cccc(N2CCN(CCNC(=O)c3ccc4ccccc4c3)CC2)c1` as the compound, how does the IC50 [1] read?
**A.** 18 µM (active)

**Q.** And the IC50 [2]?
**A.** 10 µM (active)

**Q.** Which IC50 [1] does the source give for `C[C@@H](CN1CCC(n2c(=O)[nH]c3ccc(F)cc32)CC1)NC(=O)c1ccc(F)c(F)c1` here?
**A.** 0.315 µM (active)

**Q.** And the IC50 [2]?
**A.** 0.005 µM (active)

**Q.** Which EC50 [3] does the source give for `CC(=O)NC(c1ccccc1)c1cc(Cl)c2cccnc2c1O` (stereo not given) here?
**A.** 2.71 µM (active)

**Q.** And the EC50 [4]?
**A.** 4.24 µM (active)

**Q.** What about the AC50 [5] of the same compound?
**A.** 1.2 µM (active)

**Q.** What about the AC50 [6] of the same compound?
**A.** 3.79 µM (active)

**Q.** And the CC50 [7]?
**A.** 6.04 µM (active)

**Q.** And the EC50 [8]?
**A.** 0.514 µM (active)

**Q.** And the EC50 [9]?
**A.** 1.73 µM (active)

**Q.** With `CCOC(=O)Nc1ccc(NCc2ccc(F)cc2)nc1N` [FLUPIRTINE MALEATE] as the compound, how does the IC50 [10] read?
**A.** 26.6 µM (active)

**Q.** What about the IC50 [11] of the same compound?
**A.** 65.4 µM (inactive)
